Measured values from PubChem BioAssay AID1259407 (Chemical Carcinogenesis Research Information System (CCRIS), 2018).
Activity calls are given as the source filed them. How the calls were made is not given here.

Tested on: CCRIS mutagenicity, Ames/micronucleus/aberration tests
Test: CCRIS mutagenicity studies
[1] = Test System: AMES SALMONELLA TYPHIMURIUM, Strain/Indicator: TA98, Metabolic Activation: NONE, Method: PREINCUBATION
[2] = Test System: AMES SALMONELLA TYPHIMURIUM, Strain/Indicator: TA100, Metabolic Activation: NONE, Method: PREINCUBATION

Measured: mutagenic call

C[C@]12C/C(=C/O)C(=O)C[C@@H]1CC[C@@H]1[C@@H]2CC[C@@]2(C)[C@H]1CC[C@]2(C)O
inactive: Test System: AMES SALMONELLA TYPHIMURIUM, Strain/Indicator: TA97, Metabolic Activation: HAMSTER, LIVER, S-9, AROCLOR 1254 (10 OR 30%), Method: PREINCUBATION inactive; negative | Test System: AMES SALMONELLA TYPHIMURIUM, Strain/Indicator: TA97, Metabolic Activation: NONE, Method: PREINCUBATION inactive; negative | Test System: AMES SALMONELLA TYPHIMURIUM, Strain/Indicator: TA97, Metabolic Activation: RAT, LIVER, S-9, AROCLOR 1254 (10 OR 30%), Method: PREINCUBATION inactive; negative | Test System: AMES SALMONELLA TYPHIMURIUM, Strain/Indicator: TA98, Metabolic Activation: HAMSTER, LIVER, S-9, AROCLOR 1254 (10 OR 30%), Method: PREINCUBATION inactive; negative | [1] inactive; negative | Test System: AMES SALMONELLA TYPHIMURIUM, Strain/Indicator: TA98, Metabolic Activation: NONE, Method: STANDARD PLATE inactive; negative | Test System: AMES SALMONELLA TYPHIMURIUM, Strain/Indicator: TA98, Metabolic Activation: RAT LIVER S-9, AROCLOR 1254, 10%, Method: STANDARD PLATE inactive; negative | Test System: AMES SALMONELLA TYPHIMURIUM, Strain/Indicator: TA98, Metabolic Activation: RAT, LIVER, S-9, AROCLOR 1254 (10 OR 30%), Method: PREINCUBATION inactive; negative | Test System: AMES SALMONELLA TYPHIMURIUM, Strain/Indicator: TA100, Metabolic Activation: HAMSTER, LIVER, S-9, AROCLOR 1254 (10 OR 30%), Method: PREINCUBATION inactive; negative | [2] inactive; negative | Test System: AMES SALMONELLA TYPHIMURIUM, Strain/Indicator: TA100, Metabolic Activation: NONE, Method: STANDARD PLATE inactive; negative | Test System: AMES SALMONELLA TYPHIMURIUM, Strain/Indicator: TA100, Metabolic Activation: RAT LIVER S-9, AROCLOR 1254, 10%, Method: STANDARD PLATE inactive; negative | Test System: AMES SALMONELLA TYPHIMURIUM, Strain/Indicator: TA100, Metabolic Activation: RAT, LIVER, S-9, AROCLOR 1254 (10 OR 30%), Method: PREINCUBATION inactive; negative | Test System: AMES SALMONELLA TYPHIMURIUM, Strain/Indicator: TA1535, Metabolic Activation: HAMSTER, LIVER, S-9, AROCLOR 1254 (10 OR 30%), Method: PREINCUBATION inactive; negative | Test System: AMES SALMONELLA TYPHIMURIUM, Strain/Indicator: TA1535, Metabolic Activation: NONE, Method: PREINCUBATION inactive; negative | Test System: AMES SALMONELLA TYPHIMURIUM, Strain/Indicator: TA1535, Metabolic Activation: NONE, Method: STANDARD PLATE inactive; negative | Test System: AMES SALMONELLA TYPHIMURIUM, Strain/Indicator: TA1535, Metabolic Activation: RAT LIVER S-9, AROCLOR 1254, 10%, Method: STANDARD PLATE inactive; negative | Test System: AMES SALMONELLA TYPHIMURIUM, Strain/Indicator: TA1535, Metabolic Activation: RAT, LIVER, S-9, AROCLOR 1254 (10 OR 30%), Method: PREINCUBATION inactive; negative | Test System: AMES SALMONELLA TYPHIMURIUM, Strain/Indicator: TA1537, Metabolic Activation: NONE, Method: STANDARD PLATE inactive; negative | Test System: AMES SALMONELLA TYPHIMURIUM, Strain/Indicator: TA1537, Metabolic Activation: RAT LIVER S-9, AROCLOR 1254, 10%, Method: STANDARD PLATE inactive; negative | Test System: ESCHERICHIA COLI, Strain/Indicator: WP2 UVRA, Metabolic Activation: NONE, Method: STANDARD PLATE inactive; negative | Test System: ESCHERICHIA COLI, Strain/Indicator: WP2 UVRA, Metabolic Activation: RAT LIVER S-9, AROCLOR 1254, 10%, Method: STANDARD/PLATE inactive; negative | Test System: MOUSE LYMPHOMA, Strain/Indicator: L5178Y (TK+/TK-), Metabolic Activation: NONE, Method: SUSPENSION PLATE inactive; negative | Test System: MOUSE LYMPHOMA, Strain/Indicator: L5178Y (TK+/TK-), Metabolic Activation: RAT LIVER S-9, AROCLOR 1254, 3%, NADP, ISOCITRATE, Method: SUSPENSION/PLATE inactive; negative

CCCCC[N+](=O)[O-]
inactive: [1] inactive; negative | Test System: AMES SALMONELLA TYPHIMURIUM, Strain/Indicator: TA98, Metabolic Activation: RAT, LIVER, S-9, AROCLOR, Method: PREINCUBATION inactive; negative | [2] inactive; negative | Test System: AMES SALMONELLA TYPHIMURIUM, Strain/Indicator: TA100, Metabolic Activation: RAT, LIVER, S-9, AROCLOR, Method: PREINCUBATION inactive; negative | Test System: AMES SALMONELLA TYPHIMURIUM, Strain/Indicator: TA102, Metabolic Activation: NONE, Method: PREINCUBATION inactive; negative | Test System: AMES SALMONELLA TYPHIMURIUM, Strain/Indicator: TA102, Metabolic Activation: RAT, LIVER, S-9, AROCLOR, Method: PREINCUBATION inactive; negative | Test System: UDS RAT HEPATOCYTES, Strain/Indicator: THY INCORP, Metabolic Activation: NONE inactive; negative
